In US9650379B2 (CHONG KUN DANG PHARMACEUTICAL CORP., priority 2013, dated 2017):

Legend:
HDAC6 human recombinant = target: T1, HDAC6 human recombinant (Homo sapiens, UniProt Q9UBN7); test: Inhibition of HDAC6 activity (fluorimetric assay); type: biochemical; conditions: test concentrations 0.1, 1, 10, 100 and 1000 nM; 37° C., 60 minutes
T1 construct: purchased Calbiochem 382180
T1 sequence (Q9UBN7 1-1215): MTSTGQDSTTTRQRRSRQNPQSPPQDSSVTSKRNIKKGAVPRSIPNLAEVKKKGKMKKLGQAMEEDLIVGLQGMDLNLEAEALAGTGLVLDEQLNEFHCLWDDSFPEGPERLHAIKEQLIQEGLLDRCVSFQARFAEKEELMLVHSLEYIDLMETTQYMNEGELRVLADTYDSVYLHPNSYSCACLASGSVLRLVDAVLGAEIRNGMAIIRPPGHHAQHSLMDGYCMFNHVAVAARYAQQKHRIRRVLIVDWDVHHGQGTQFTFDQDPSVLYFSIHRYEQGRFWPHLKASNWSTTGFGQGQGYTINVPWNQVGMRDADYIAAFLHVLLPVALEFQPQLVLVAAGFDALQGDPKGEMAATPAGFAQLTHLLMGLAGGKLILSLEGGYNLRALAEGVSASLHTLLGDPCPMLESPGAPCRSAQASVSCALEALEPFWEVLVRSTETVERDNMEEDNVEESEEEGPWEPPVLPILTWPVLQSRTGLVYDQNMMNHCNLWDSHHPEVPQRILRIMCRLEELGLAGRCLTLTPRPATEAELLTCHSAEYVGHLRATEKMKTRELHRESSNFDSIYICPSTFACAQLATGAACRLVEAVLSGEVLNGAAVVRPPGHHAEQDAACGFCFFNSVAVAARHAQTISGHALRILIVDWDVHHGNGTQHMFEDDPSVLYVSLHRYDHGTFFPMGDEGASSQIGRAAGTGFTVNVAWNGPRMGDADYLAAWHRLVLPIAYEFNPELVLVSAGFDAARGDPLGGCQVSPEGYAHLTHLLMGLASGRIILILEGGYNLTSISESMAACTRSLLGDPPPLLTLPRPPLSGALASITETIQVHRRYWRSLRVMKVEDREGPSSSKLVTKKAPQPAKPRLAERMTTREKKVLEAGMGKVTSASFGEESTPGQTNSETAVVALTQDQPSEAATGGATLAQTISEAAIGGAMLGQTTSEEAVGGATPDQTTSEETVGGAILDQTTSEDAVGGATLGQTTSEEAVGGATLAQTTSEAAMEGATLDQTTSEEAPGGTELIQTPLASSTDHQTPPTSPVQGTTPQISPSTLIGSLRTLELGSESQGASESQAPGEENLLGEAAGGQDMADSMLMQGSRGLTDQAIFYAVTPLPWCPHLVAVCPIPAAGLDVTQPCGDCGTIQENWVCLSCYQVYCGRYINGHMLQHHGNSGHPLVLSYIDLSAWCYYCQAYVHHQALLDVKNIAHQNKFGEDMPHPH
Procedure, shortened: (§1)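 HDAC1 tested with the kit assay mixture at 100, 1000 and 10000 nM compound; recombinant human HDAC6 at 0.1, 1, 10, 100 and 1000 nM. Reaction ran 60 min at 37° C, then developer was added for 30 min at 37° C and fluorescence quantified.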

HDAC1 = target: T2, HDAC1 (Homo sapiens, UniProt Q13547); test: Inhibition of HDAC1 activity (HDAC1 fluorimetric drug discovery assay kit); type: biochemical; conditions: test concentrations 100, 1000 and 10000 nM; 37° C., 60 minutes
T2 construct: purchased Enzolifesciences BML-AK511
T2 sequence (Q13547 whole entry): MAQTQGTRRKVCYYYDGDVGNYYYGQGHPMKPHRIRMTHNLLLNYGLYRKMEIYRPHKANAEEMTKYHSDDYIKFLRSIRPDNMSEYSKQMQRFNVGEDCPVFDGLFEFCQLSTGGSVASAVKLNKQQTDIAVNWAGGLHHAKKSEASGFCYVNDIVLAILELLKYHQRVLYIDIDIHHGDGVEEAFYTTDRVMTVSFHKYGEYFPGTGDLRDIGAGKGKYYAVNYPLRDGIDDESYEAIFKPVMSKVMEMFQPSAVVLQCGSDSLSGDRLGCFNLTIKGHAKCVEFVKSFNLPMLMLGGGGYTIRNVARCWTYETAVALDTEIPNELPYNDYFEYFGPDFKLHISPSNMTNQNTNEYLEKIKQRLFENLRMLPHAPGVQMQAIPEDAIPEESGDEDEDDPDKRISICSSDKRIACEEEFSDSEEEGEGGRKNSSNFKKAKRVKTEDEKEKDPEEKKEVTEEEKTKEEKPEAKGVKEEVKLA
Procedure, shortened: as §1

Row | SMILES | IC50 (HDAC6 human recombinant) [nM] | IC50 (HDAC1) [nM]
1 | O=C(NO)c1ccc(Cn2ccc3cc(C4CCN(CC5(C(F)(F)F)CCC5)CC4)cnc32)cc1 [Compound 724, N-hydroxy-4-((5-(1-((1-(trifluoromethyl)cyclobutyl)methyl)piperidin-4-yl)-1H-pyrrolo[2,3-b]pyridin-1-yl)methyl)benzamide] | 147 | 9820
2 | O=C(NO)c1ccc(Cn2ccc3cc(-c4ccc(F)cc4)cnc32)cc1 [Compound 104, 4-((5-(4-fluorophenyl)-1H-pyrrolo[2,3-b]pyridin-1-yl)methyl)-N-hydroxybenzamide] | 0.7 | 1670
3 | CC(CC(=O)O)N1CCC(c2ccnc3c2ccn3Cc2ccc(C(=O)NO)cc2)CC1 (centres unmarked) [Compound 1015, 3-(4-(1-(4-(hydroxycarbamoyl)benzyl)-1H-pyrrolo[2,3-b]pyridin-4-yl)piperidin-1-yl)butanoic acid] | 8.5 | 670
4 | O=C(NO)c1ccc(Cn2ccc3cc(C4CCN(S(=O)(=O)c5ccccc5)CC4)cnc32)cc1 [Compound 876, N-hydroxy-4-((5-(1-(phenylsulfonyl)piperidin-4-yl)-1H-pyrrolo[2,3-b]pyridin-1-yl)methyl)benzamide] | 42 | 2800
5 | O=C(NO)c1ccc(Cn2ccc3cc(N4CCOCC4)cnc32)cc1 [Compound 787, N-hydroxy-4-((5-morpholino-1H-pyrrolo[2,3-b]pyridin-1-yl)methyl)benzamide] | 24.9 | 2780
6 | COc1ccc(CN2CCC3(CCN(c4ccnc5c4ccn5Cc4ccc(C(=O)NO)cc4)CC3)C2)cc1 [Compound 1021, N-hydroxy-4-((4-(2-(4-methoxybenzyl)-2,8-diazaspiro[4.5]decan-8-yl)-1H-pyrrolo[2,3-b]pyridin-1-yl)methyl)benzamide] | 14 | 240
7 | CC(C)(C)CN1CCC(c2ccnc3c2ccn3Cc2ccc(C(=O)NO)cc2)CC1 [Compound 868, N-hydroxy-4-((4-(1-neopentylpiperidin-4-yl)-1H-pyrrolo[2,3-b]pyridin-1-yl)methyl)benzamide] | 15.6 | 930
8 | CC(O)(CO)CN1CCC(c2ccnc3c2ccn3Cc2ccc(C(=O)NO)cc2)CC1 (centres unmarked) [Compound 945, 4-((4-(1-(2,3-dihydroxy-2-methylpropyl)piperidin-4-yl)-1H-pyrrolo[2,3-b]pyridin-1-yl)methyl)-N-hydroxybenzamide] | 3.7 | 200
9 | O=C(NO)c1ccc(Cn2ccc3c(N4CCN(Cc5ccc(C(F)(F)F)cc5)CC4)ccnc32)cc1 [Compound 706, N-hydroxy-4-((4-(4-(4-(trifluoromethyl)benzyl)piperazin-1-yl)-1H-pyrrolo[2,3-b]pyridin-1-yl)methyl)benzamide] | 30 | 2330
10 | CC1CN(c2cnc3c(ccn3Cc3ccc(C(=O)NO)cc3)c2)CC(C)O1 (centres unmarked) [Compound 807, 4-((5-(2,6-dimethylmorpholino)-1H-pyrrolo[2,3-b]pyridin-1-yl)methyl)-N-hydroxybenzamide] | 10.4 | 390
11 | O=C(O)CN1CCC(c2ccnc3c2ccn3Cc2ccc(C(=O)NO)cc2)CC1 [Compound 917, 2-(4-(1-(4-(hydroxycarbamoyl)benzyl)-1H-pyrrolo[2,3-b]pyridin-4-yl)piperidin-1-yl)acetic acid] | 5.8 | 780
12 | O=C(NO)c1ccc(Cn2ccc3cc(C4CCNCC4)cnc32)cc1 [Compound 715, N-hydroxy-4-((5-(piperidin-4-yl)-1H-pyrrolo[2,3-b]pyridin-1-yl)methyl)benzamide] | 8 | 540
13 | CN1CCN(Cc2ccc(CN3CCC(c4ccnc5c4ccn5Cc4ccc(C(=O)NO)cc4)CC3)cc2)CC1 [Compound 988, N-hydroxy-4-((4-(1-(4-((4-methylpiperazin-1-yl)methyl)benzyl)piperidin-4-yl)-1H-pyrrolo[2,3-b]pyridin-1-yl)methyl)benzamide] | 5.9 | 290
